Values joined by “and” are separate entries in the source; they are usually repeats but may differ in a detail not shown here. Equal values may be shown once.
Legend:
Type in all cases: in vivo
[1] = test system: Salsola kali (Russian thistle), SASKR; test: Greenhouse postemergence trial, visual injury on Russian thistle; conditions: herbicide alone 20 g/ha
Protocol: (§1) Greenhouse Trial Methodology-Evaluation of Postemergence Herbicidal […] in Crops […] When required to ensure good germination and healthy plants, a fungicide treatment and/or other chemical or physical treatment was applied. The plants were grown for 7-36 days (d) in a greenhouse with an approximate 14-hour (h) photoperiod which was maintained at about 23° C. during the day and 22° C. during the night. Nutrients and water were added on a regular basis and supplemental lighting was provided with overhead metal halide 1000-Watt lamps as necessary. The plants were employed for testing when they reached the second or third true leaf stage. Emulsifiable concentrates of each of each pyridine carboxylate herbicide (Compound A or Compound B) were prepared at 100 grams acid equivalent per liter (g ae/L). […] The concentrated stock solutions were further diluted with an aqueous mixture of 1.25% […] or MSO® Concentrate with LECI-TECH® to obtain stock solutions at reduced application rates for each herbicide. Spray solutions of the herbicide combinations (Compound A or Compound B plus safener) were prepared by adding weighed amounts or aliquots of the safener to the stock solutions of Compound A or Compound B to form 12-mL spray solutions in two-way combinations. […] Control plants were sprayed in the same manner with the solvent blank. All herbicide (component a) application rates are given as “g ae/ha” and all safener (component b) application rates are given as “g ai/ha.” The treated plants and control plants were placed in a greenhouse as described above and watered by sub-irrigation to prevent wash-off of the test compounds.

[2] = test system: Canada horseweed (ERICA, Erigeron canadensis); test: Greenhouse postemergence trial, visual injury on Canada horseweed; conditions: Compound A 20 g/ha alone, Table 19
Text: (§2) Greenhouse Trial Methodology—Evaluation of Postemergence Herbicidal Safening in Crops
(§3) Seeds of the desired test plant species were planted in a 90:10% v/v (volume/volume) mixture of PRO-MIX® BX (Premier Tech Horticulture, Quakertown, PA, USA) and PROFILE® GREENS GRADE™ (Profile Products LLC, Buffalo Grove, IL, USA) planting mixture, which typically has a pH of 5.2 to 6.2 and an organic matter content of at least 50 percent, in plastic pots with a surface area of 103.2 square centimeters (cm^2). When required to ensure good germination and healthy plants, a fungicide treatment and/or other chemical or physical treatment was applied. The plants were grown for 7-36 days (d) in a greenhouse with an approximate 14-hour (h) photoperiod which was maintained at about 23° C. during the day and 22° C. during the night. Nutrients and water were added on a regular basis and supplemental lighting was provided with overhead metal halide 1000-Watt lamps as necessary. The plants were employed for testing when they reached the second or third true leaf stage.
(§4) Emulsifiable concentrates of each of each pyridine carboxylate herbicide (Compound A or Compound B) were prepared at 100 grams acid equivalent per liter (g ae/L). An aliquot of each emulsifiable concentrate was placed in a 25 mL glass vial and diluted with an aqueous mixture of 1.25% (v/v) ACTIROB® B esterified rapeseed oil (Bayer Crop Science, Research Triangle Park, NC, USA) or MSO® Concentrate with LECI-TECH® methylated soybean oil (Loveland Products, Loveland, CO, USA) to obtain concentrated stock solutions at the highest application rate for each herbicide, based upon a 12 milliliter (mL) application volume at a rate of 187 liters per hectare (L/ha). The concentrated stock solutions were further diluted with an aqueous mixture of 1.25% v/v ACTIROB® B or MSO® Concentrate with LECI-TECH® to obtain stock solutions at reduced application rates for each herbicide. Spray solutions of the herbicide combinations (Compound A or Compound B plus safener) were prepared by adding weighed amounts or aliquots of the safener to the stock solutions of Compound A or Compound B to form 12-mL spray solutions in two-way combinations. […]
(§5) The treated plants and control plants were placed in a greenhouse as described above and watered by sub-irrigation to prevent wash-off of the test compounds. After 20-22 d, the condition of the test plants as compared with that of the control plants was determined visually and scored on a scale of 0 to 100 percent where 0 corresponds to no injury and 100 corresponds to complete kill.

[3] = test system: Anthemis arvensis (field chamomile), ANTAR; test: Greenhouse postemergence trial, visual injury on field chamomile
Text: as §2, §3
(§6) Emulsifiable concentrates of each of each pyridine carboxylate herbicide (Compound A or Compound B) were prepared at 100 grams acid equivalent per liter (g ae/L). An aliquot of each emulsifiable concentrate was placed in a 25 mL glass vial and diluted with an aqueous mixture of 1.25% (v/v) ACTIROB® B esterified rapeseed oil (Bayer Crop Science, Research Triangle Park, NC, USA) or MSO® Concentrate with LECI-TECH® methylated soybean oil (Loveland Products, Loveland, CO, USA) to obtain concentrated stock solutions at the highest application rate for each herbicide, based upon a 12 milliliter (mL) application volume at a rate of 187 liters per hectare (L/ha). The concentrated stock solutions were further diluted with an aqueous mixture of 1.25% v/v ACTIROB® B or MSO® Concentrate with LECI-TECH® to obtain stock solutions at reduced application rates for each herbicide. Spray solutions of the herbicide combinations (Compound A or Compound B plus safener) were prepared by adding weighed amounts or aliquots of the safener to the stock solutions of Compound A or Compound B to form 12-mL spray solutions in two-way combinations.
(§7) The spray solutions were applied to the plant material with an overhead Mandel track sprayer equipped with 8002E nozzles calibrated to deliver 187 L/ha over an application area of 0.503 square meters (m^2) at a spray height of 18 inches (43 centimeters (cm)) above the average plant canopy. Control plants were sprayed in the same manner with the solvent blank. All herbicide (component a) application rates are given as “g ae/ha” and all safener (component b) application rates are given as “g ai/ha.”
as §5

[4] = test system: ivyleaf morningglory (IPOHE, Ipomoea hederacea); test: Greenhouse postemergence trial, visual injury on ivyleaf morningglory; conditions: Compound A 20 g/ha alone, Table 19
Text: as §2, §3, §4, §5

[5] = test system: Hordeum vulgare (winter barley), HORVW; test: Greenhouse postemergence safening trial, visual injury on winter barley
Protocol: as §1

[6] = test system: Chinese sprangletop (LEFCH, Leptochloa chinensis); test: Greenhouse postemergence trial, visual injury on Chinese sprangletop; conditions: Compound A 20 g/ha alone, Table 19
Text: as §2, §3, §4, §5

[7] = test system: Matricaria inodora (false chamomile), MATIN; test: Greenhouse postemergence trial, visual injury on false chamomile
Text: as §2, §3, §6, §7, §5

[8] = test system: Hordeum vulgare (spring barley), HORVS; test: Greenhouse postemergence safening trial, visual injury on spring barley
Protocol: as §1

[9] = test system: pigweed (AMARE, Amaranthus retroflexus); test: Greenhouse postemergence trial, visual injury on pigweed
Text: as §2, §3, §6, §7, §5

[10] = test system: Johnson grass (SORHA, Sorghum halepense); test: Greenhouse postemergence trial, visual injury on Johnson grass; conditions: Compound A 20 g/ha alone, Table 19
Text: as §2, §3, §4, §5

rice (ORYSA) = test: Greenhouse postemergence safening trial, visual injury on rice; conditions: Compound A 20 g/ha alone, Table 19
Text: as §2, §3, §4, §5

[11] = Compound A 20 g/ha alone, Table 15
[12] = Compound A 40 g/ha alone, Table 14
[13] = Compound A 40 g/ha alone, Table 16

**Q.** Which “% visual injury, Ob” value [1] does the source give for `N#CCOC(=O)c1nc(-c2ccc3cc[nH]c3c2F)c(F)c(N)c1Cl` [Compound A, cyanomethyl 4-amino-3-chloro-5-fluoro-6-(7-fluoro-1H-indol-6-yl)pyridine-2-carboxylate] here?
**A.** Its value is 60%.

**Q.** What about the “% visual injury, Ob” value [2] of the same compound?
**A.** The value was 95%.

**Q.** And the “% visual injury, Ob” value [3, 11]?
**A.** The value was 95%.

**Q.** And the “% visual injury, Ob” value ([3]; herbicide alone 20 g/ha)?
**A.** The value was 95%.

**Q.** And the “% visual injury, Ob” value [4]?
**A.** Its value is 0%.

**Q.** And the “% visual injury, Ob” value [5, 11]?
**A.** The value was 15%.

**Q.** What about the “% visual injury Δ” value [5, 12] of the same compound?
**A.** Its value is 0%.

**Q.** What about the “% visual injury, Ob” value [5, 12] of the same compound?
**A.** The value was 40%.

**Q.** What about the “% visual injury, Ob” value [5, 13] of the same compound?
**A.** Its value is 30%.

**Q.** What about the “% visual injury, Ob” value ([5]; herbicide alone 20 g/ha) of the same compound?
**A.** Its value is 15%.

**Q.** What about the “% visual injury Δ” value ([5]; herbicide alone 40 g/ha) of the same compound?
**A.** The value was 0%.

**Q.** What about the “% visual injury, Ob” value ([5]; herbicide alone 40 g/ha) of the same compound?
**A.** The value was 40% and 30%.

**Q.** And the “% visual injury, Ob” value [6]?
**A.** The value was 60%.

**Q.** What about the “% visual injury, Ob” value [7, 13] of the same compound?
**A.** Its value is 100%.

**Q.** And the “% visual injury, Ob” value ([7]; herbicide alone 40 g/ha)?
**A.** The value was 100%.

**Q.** And the “% visual injury, Ob” value [8, 11]?
**A.** The value was 20%.

**Q.** And the “% visual injury, Ob” value [8, 12]?
**A.** Its value is 20%.

**Q.** And the “% visual injury, Ob” value [8, 13]?
**A.** Its value is 40%.

**Q.** What about the “% visual injury, Ob” value ([9]; Compound A 20 g/ha alone, Table 19) of the same compound?
**A.** Its value is 93%.

**Q.** What about the “% visual injury, Ob” value ([9]; Compound A 40 g/ha alone, Table 17) of the same compound?
**A.** Its value is 100%.

**Q.** What about the “% visual injury, Ob” value ([9]; Compound A 40 g/ha alone, Table 18) of the same compound?
**A.** The value was 100%.

**Q.** And the “% visual injury, Ob” value [10]?
**A.** Its value is 0%.

**Q.** What about the “% visual injury, Ob” value (rice (ORYSA)) of the same compound?
**A.** Its value is 10%.

— patent publication US12310364B2, “Safened compositions comprising pyridine carboxylate herbicides and cloquintocet” (Corteva Agriscience LLC, priority 2018, dated 2025)
